# According to patent US20050215498A1, “Method for the protection of endothelial and epithclial cells during chemotherapy” (priority 2002, published 2005):
# Read-outs that look alike come from different tables or passages of the source.
# Tests used:
# [1] = manufacturers's instructions, cited from earlier work
# [2] = test system: primary acute myeloid leukemia (AML) cells; assay: Propidium iodide staining (vitality) of primary AML cells; type: cell-based, human; conditions: 48 hours
# Experimental: (§1) F-Ara: 10 μg/mL. D: 100 μg/mL. A: Propidium iodide staining of primary acute myeloid leukemia (AML) cells derived from a patient in blast crisis (70% blasts of total PBMC count). Results are given in mean % vitality of three independent experiments. *: p=0.008 of Control- versus F-Ara-treated AML cells. B: Flow cytometric analysis of the SSC-image of PI-negative PBMC. Shown is one representative out of five independent experiments with different blood donors.
# Next to its desirable protective capacity for endothelial and epithelial cells against F-Ara induced apoptosis it was important to investigate whether Defibrotide would also interfere with the anti-leukaemic properties of F-Ara. To address this question, primary peripheral blood derived acute myeloid leukaemic (AML) cells with a blast amount of 70% were thawed, kept in culture for 24 hours and subsequently treated with F-Ara in the presence or absence of Defibrotide for another 48 hours. […] However, F-Ara induced cell death in up to 80% of the cells. […] This could be observed after as early as 24 hours of incubation. […] We next asked whether Defibrotide might modulate the effect of F-Ara against normal haematopoetic cells and performed apoptosis assays (SSC-image) with PBMC from normal human blood donors. […]
# [3] = test system: human microvascular endothelial cells (HMEC); type: cell-based
# Experimental: All cell culture reagents have been purchased by Gibco BRL (Karlsruhe, Germany) unless stated otherwise. 2-Fluoroadenine 9-beta-D-arabinofuranoside (F-Ara) was obtained from Sigma, Deisenhofen, Germany, Defibrotide vials were obtained from Prociclide™, Crinos, Como, Italy.
# (§2) An established method for detecting apoptosis in human endothelial cells was performed as previously described^20 using flow cytometry (FACScan™ and CellQuest™ software, Becton Dickinson, Heidelberg, Germany). Endothelial and epithelial cells were either left untreated or incubated with F-Ara in descending concentrations (range: 10 μg/mL to 0.1 μg/mL) in the presence or absence of Defibrotide for 48 hours. Afterwards, cells were washed in PBS/10% FCS and stained with the necrosis detecting dye propidium iodide (PI, 0.2 μg/mL, Sigma, Deisenhofen, Germany). Apoptotic cells were identified by a PI-negative staining and by a characteristic side scatter image distinct from that of non-apoptotic cells. At least three experiments per cell type have been performed.
# (§3) An alternative method for the detection of apoptosis used microscopic analysis of DNA fluorescence labeled cells. 1×10 ^5/plate endothelial cells were seeded in 35 mm petri dishes (Nunc, Wiesbaden, Germany). These cells were treated as given above and subsequently fixed with Methanol/Acetone (1:1) for 2 minutes, washed once in PBS and stained with 4,6-Diamidino-2-phenylindole (DAPI) (0.5 μg/mL, Sigma, Deisenhofen, Germany), dissolved in 20% Glycerin/PBS. Samples were mounted and subjected to microscopic analysis.
# In order to assess the influence of F-Ara on the viability of cultured human endothelial cells, HMEC were incubated with descending pharmacologically relevant concentrations (10 μg/mL to 0.1 μg/mL) of 2-Fluoroadenine 9-beta-D-arabinofuranoside as the metabolized form of fludarabine. […] After 48 hours of incubation HMEC were subjected to apoptosis assays using the detection of cellular granularity of propidium iodide negative cells (side scatter (SSC) image in flow cytometry) and microscopic analyses of DAPI-stained cells, respectively.
# In order to exclude unspecific artifical extracellular interaction of F-Ara and Defibrotide in vitro HMEC were pretreated with Defibrotide for 1 hour and subsequently, after 3 washing steps, incubated with F-Ara for another 48 hours and vice versa.
# endothelial cells = assay: Radiation induced endothelial cell death; type: cell-based; conditions: data not shown
# Description: Since in many pre-transplant protocols fludarabine is used in combination with ionizing radiation it was important to test whether these two compounds would cooperate in affecting endothelial cells.
# [4] = test system: HaCaT human keratinocyte cell line; assay: Flow cytometric apoptosis analysis in HaCaT; type: cell-based; conditions: Defibrotide alone, data not shown
# Experimental: as §2
# as §3, with “Samples were mounted and subjected to microscopic analysis.” left out
# (§4) Skin, the gastrointestinal tract (GIT) and most likely the lung are among the primary targets of GvHD. […] Again, the protective potential of Defibrotide (100 μg/mL) was assessed.
# [5] = test system: MHC class I molecules on HMEC; assay: Flow cytometric analysis of MHC class I on HMEC; type: cell-based, human; conditions: for induction of mean fluorescence intensity of MHC class I: 24 hours
# Experimental: (§5) Cell surface expression of ICAM-1 (Becton Dickinson/Pharmingen, Heidelberg, Germany) and MHC class I (w6/32, hybridoma supernatant, ATCC, Manassas, Va., USA) molecules on HMEC was assessed by the indirect immunofluorescence technique and subsequent flow cytometry using the FACScan™ flow cytometer and the Cell-Quest™ analysis program (Becton Dickinson, Heidelberg, Germany). Endothelial cells were treated as given and after incubation harvested with trypsin/EDTA (Gibco), washed once in cold PBS/10% FCS and incubated 1 hour on ice with 5 μg/mL of anti-adhesion molecule MoAbs. Cells were washed again and incubated with a goat anti-mouse IgG-FITC conjugated antibody F(ab)2 fragment (Dako, Hamburg, Germany) for 45 minutes on ice. Cells were then washed in PBS/10% FCS and subjected to analysis. Viability of the cells was determined by concurrent propidium iodide (0.2 μg/mL, Sigma, Deisenhofen, Germany) staining. Omitting of the first antibody served as a negative control to detect unspecific fluorescence.
# (§6) Since a proinflammatory activation of target cells is often associated with increased expression of major histocompatibility antigens (MHC) class I and II, we did further flow cytometric analyses for these antigens after incubation with F-Ara in various concentrations for 24 hours.
# [6] = test system: A549 alveolar epithelial cells; assay: Flow cytometric apoptosis analysis in A549; type: cell-based, human; conditions: Defibrotide alone, data not shown
# Experimental: as §2
# as §3, with “Samples were mounted and subjected to microscopic analysis.” left out
# as §4
# [7] = test system: ICAM-1 expression on HMEC; assay: Flow cytometric analysis of ICAM-1 expression on HMEC; type: cell-based, human
# Experimental: as §5
# Based on previous observations that pretransplant conditioning not only damages, but also leads to proinflammatory activation of endothelial cells in terms of adhesion molecule induction,^15 we next investigated the expression of ICAM-1 under the influence of F-Ara. […] We next asked whether Defibrotide would also be functional as an antagonist of F-Ara in this experimental setting. HMEC were treated with F-Ara as given and incubated in the presence or absence of descending concentrations of Defibrotide.
# [8] = test system: PBMC from normal human blood donors; assay: Apoptosis assay (SSC-image) with PBMC; type: cell-based
# Experimental: as §1
# as §2, with “performed. […]” for “performed.”
# [9] = test system: HMEC as target cells for allogeneic CTL; assay: 51Cr release assay, lysis of HMEC by allogeneic PBMC / CD8+ CTL; type: cell-based, human
# Description: Peripheral blood mononuclear cells (PBMC) were derived from heparinized (Novo Nordisk, Mainz, Germany) blood of healthy human volunteers or buffy coats from the Bavarian Red Cross according to a standard protocol using Ficoll hypaque (Pharmacia, Freiburg, Germany) density gradient centrifugation. Cells were then stimulated in a ratio of 1:1 and 2:1 with irradiated (20 Gy) HMEC for 7 days in the presence of Interleukin 2 (50 U/mL) and 10% human AB serum (Sigma, Deisenhofen, Germany). Alternatively, PBMC were selected for CD8+ T cells and natural killer (NK) cells using cell isolation kits according to the manufactuer's instructions (MACS™, Miltenyi Bio-tech, Bergisch-Gladbach, Germany) based on the deletion of non CD8+ and non NK cells, respectively. Stimulation of the selected cells was identical to that of whole PBMC cultures, except for NK cells which were stimulated for only 3 days.
# T cell- or NK-cell mediated cytotoxicity was assessed according to a well established protocol,^23 using a 4h ^51Cr radioisotope assay. HMEC that had either been left untreated or incubated with F-Ara (10μg/mL) overnight were used as target cells, to be labeled 0.4 mCi Na2^51CrO4 for 2 hours. After 3 washing steps, target cells were adjusted to 10^4 cells/mL and coincubated with PBMC, CD8+ or NK effector cells at descending effector to target ratios for another 4 hours. Supernatants were transfered to dry scintillation plates and counted in a γ-counter (all from Canberra Packard, Darmstadt, Germany). Autologous (effector) B-Lymphoblastoid cell lines (B-LCL) and K562 as NK sensitive cells were taken as additional control targets. The percentage of specific lysis was calculated as: [(experimental release−spontaneous release)/(maximal release−spontaneous release)]×100. Spontaneous release in all experiments was always below 20%. […]
# [10] = test system: BEAS-2B bronchial epithelial cell line and primary bronchial epithelial cells; assay: Flow cytometric apoptosis analysis in bronchial epithelial cells; type: cell-based; conditions: F-Ara 10 μg/mL, 48 hours
# Experimental: as §2
# (§7) Skin, the gastrointestinal tract (GIT) and most likely the lung are among the primary targets of GvHD. Therefore, it was reasonable to test the influence of F-Ara on cell lines derived from these organs. Cells from keratinocyte (HaCaT), GIT (SW 480), alveolar (A549) and bronchial epithelial (BEAS-2B) cell lines as well as primary bronchial epithelial cells were incubated with F-Ara (10 μg/mL) as given for FIGS. 1 and 2 and assayed in flow cytometric apoptosis analyses 48 hours post treatment. […] Again, the protective potential of Defibrotide (100 μg/mL) was assessed.
# MHC class II on HMEC = conditions: F-Ara various concentrations, 24 hours, data not shown
# Experimental: as §5, §6
# [11] = test system: HMEC as target cells for allogeneic NK cells; assay: 51Cr release assay, lysis of HMEC by allogeneic NK cells; type: cell-based, human; conditions: F-Ara 10 μg/mL, 24 hours
# Experimental: T cell- or NK-cell mediated cytotoxicity was assessed according to a well established protocol,^23 using a 4h ^51Cr radioisotope assay. HMEC that had either been left untreated or incubated with F-Ara (10μg/mL) overnight were used as target cells, to be labeled 0.4 mCi Na2^51CrO4 for 2 hours. After 3 washing steps, target cells were adjusted to 10^4 cells/mL and coincubated with PBMC, CD8+ or NK effector cells at descending effector to target ratios for another 4 hours. Supernatants were transfered to dry scintillation plates and counted in a γ-counter (all from Canberra Packard, Darmstadt, Germany). […] The percentage of specific lysis was calculated as: [(experimental release−spontaneous release)/(maximal release−spontaneous release)]×100.
# [12] = test system: SW 480 gut epithelial cell line; assay: Flow cytometric apoptosis analysis in SW 480; type: cell-based; conditions: F-Ara 10 μg/mL, 48 hours
# Experimental: as §2, §7
compound,measurement,setting,value
Nc1nc(F)nc2c1ncn2[C@@H]1O[C@H](COP(=O)(O)OP(=O)(O)OP(=O)(O)O)[C@@H](O)[C@@H]1O [fludarabine triphosphate],median intracellular level in target cells,[1]; concentration representing 20 μM,5.8 µg/mL
same,median intracellular level in target cells,[1],20 µM
Defibrotide,protection of AML cells from F-Ara mediated toxicity,[2]; Defibrotide 100 μg/mL with F-Ara 10 μg/mL,not able to protect
same,protection of F-Ara induced cell death,"[3]; Defibrotide 100 to 0.1 μg/mL with F-Ara 10 μg/mL, 48 hours",dose-dependent protection
same,endothelial cell viability,"[3]; Defibrotide alone, 48 hours",did not influence endothelial cell viability
same,protection from F-Ara induced apoptosis,"[3]; pretreatment with Defibrotide 1 hour, washing, then F-Ara 48 hours",sufficient to protect cells
same,endothelial programmed cell death,"[3]; pretreatment with F-Ara 1 hour, subsequent incubation with Defibrotide",did not lead to endothelial programmed cell death
same,protection against radiation induced endothelial cell damage,endothelial cells,not protective
same,number of apoptotic cells,[4],did not influence the number of apoptotic cells
same,"MHC class I molecules, F-Ara versus F-Ara+D treated HMEC",[5]; data not shown,significant downregulation
same,number of apoptotic cells,[6],did not influence the number of apoptotic cells
same,F-Ara induced ICAM-1 expression,[7]; Defibrotide 100 μg/mL and 10 μg/mL with F-Ara 10 μg/mL,antagonized
same,ICAM-1 expression,"[7]; Defibrotide alone, every concentration tested, data not shown",remained unchanged
same,% apoptotic cells,[8]; F-Ara 10 μg/mL with Defibrotide 100 μg/mL,43.1%
same,specific lysis of HMEC by CD8+ CTL,[9]; pretreatment of target HMEC with F-Ara and Defibrotide (F-Ara+D),downregulated specific lysis even below control levels
"Nc1nc(F)nc2c1ncn2[C@@H]1O[C@H](CO)[C@@H](O)[C@@H]1O [F-Ara, 2-fluoro-9-β-D-arabinofuranosyladenine]",cell death of AML cells,"[2]; F-Ara 10 μg/mL, almost 50% died spontaneously",up to 80%
same,apoptosis in HMEC,"[3]; F-Ara 1 μg/mL, 48 hours",no longer effective
same,apoptosis in HMEC,"[3]; F-Ara 10 and 5 μg/mL, 48 hours",causes apoptosis
same,apoptosis in HMEC,"[3]; after 24h, data not shown",already detectable
same,enhancement of radiation induced cell death,endothelial cells; combination with ionizing radiation,could not find any enhancement
same,apoptosis induction,[10],resistant
same,MHC class II expression,MHC class II on HMEC,remained unchanged
same,induction of mean fluorescence intensity of MHC class I,[5]; F-Ara 5 μg/mL,1.3 fold
same,induction of mean fluorescence intensity of MHC class I,[5]; F-Ara 10 μg/mL,1.5 fold
same,allogenicity of HMEC towards NK cells,[11],significantly downregulated
same,concentrations effective in inducing ICAM-1,[7]; 24 hours,≥ 1 µg/mL
same,ICAM-1 expression on HMEC,"[7]; F-Ara, 24 hours of incubation",significantly enhances expression
same,% apoptotic cells,"[8]; F-Ara 10 μg/mL, untreated control 5.1%",40.1%
same,apoptosis induction,[12],resistant
same,lysis of F-Ara-treated HMEC by CD8+ CTL versus control HMEC,[9]; CD8+ selected effectors,significantly higher
same,antigenicity of HMEC towards allogeneic PBMC,"[9]; F-Ara (1 μg/mL) treated targets, all E/T ratios tested",increased the antigenicity
